Measurements as given in patent US20060247129A1, “Surfactant compounds and agrochemical compositions” (Imperial Chemical Industries PLC, priority 2003, published 2006).

How the values were obtained:
Assay in all cases: glasshouse herbicide spray test, % weed control, adjuvant with glyphosate potassium salt
Type in all cases: in vivo
Details in all cases: 19 days after treatment
Solanum nigra = system: Solanum nigra
Method: (§1) The compound of Synthesis Example SE1 was tested as an adjuvant with glyphosate potassium salt, mixing the glyphosate and adjuvant in a tank mix using concentrations of glyphosate from 0.125 to 2 g.l-1 and of adjuvant from 0.003125 to 0.2% v/v. The tank mixes were sprayed as a herbicide on a variety of test species at an application rate of 200 l.ha^−1 to give application rates of glyphosate of from 25 to 400 g (active ingredient).ha^−1. The plants were grown in a warm glasshouse and assessed 19 days after treatment for % control—the mean of three replicates for visually assessed % weed control, relative to unsprayed plants of each species in the same test.
(§2) Example AE1 was repeated but using the compound made in Synthesis Example SE4 as the adjuvant.

Portulaca oleracea = system: Portulaca oleracea
Method: as §1, §2

Sida Spinosa = system: Sida Spinosa
Method: as §1, §2

Echinochloa crus-galli = system: Echinochloa crus-galli
Method: as §1, §2

Sorghum halepense = system: Sorghum halepense
Method: as §1, §2

Abutilon Theophrasti = system: Abutilon Theophrasti
Method: as §1, §2

[1] = glyphosate 50 g ai/ha, adjuvant 0.003125 % v/v
[2] = glyphosate 50 g ai/ha, adjuvant 0.0125 % v/v
[3] = glyphosate 50 g ai/ha, adjuvant 0.05 % v/v
[4] = glyphosate 50 g ai/ha, adjuvant 0.2 % v/v
[5] = glyphosate 100 g ai/ha, adjuvant 0.003125 % v/v
[6] = glyphosate 100 g ai/ha, adjuvant 0.0125 % v/v
[7] = glyphosate 100 g ai/ha, adjuvant 0.05 % v/v
[8] = glyphosate 100 g ai/ha, adjuvant 0.2 % v/v
[9] = glyphosate 200 g ai/ha, adjuvant 0.003125 % v/v
[10] = glyphosate 200 g ai/ha, adjuvant 0.0125 % v/v
[11] = glyphosate 200 g ai/ha, adjuvant 0.05 % v/v
[12] = glyphosate 200 g ai/ha, adjuvant 0.2 % v/v
[13] = glyphosate 400 g ai/ha, adjuvant 0.003125 % v/v
[14] = glyphosate 400 g ai/ha, adjuvant 0.0125 % v/v
[15] = glyphosate 400 g ai/ha, adjuvant 0.05 % v/v
[16] = glyphosate 400 g ai/ha, adjuvant 0.2 % v/v
[17] = glyphosate 25 g ai/ha, adjuvant 0.003125 % v/v
[18] = glyphosate 25 g ai/ha, adjuvant 0.0125 % v/v
[19] = glyphosate 25 g ai/ha, adjuvant 0.05 % v/v
[20] = glyphosate 25 g ai/ha, adjuvant 0.2 % v/v

Random 8-ethoxylate-2-propoxylate of N-methyl glucamine C13/C15 glycidyl ether [SE4]
% control SOLNI (Solanum nigra; [1]): 37% | % control SOLNI (Solanum nigra; [2]): 32% | % control SOLNI (Solanum nigra; [3]): 63% | % control SOLNI (Solanum nigra; [4]): 73% | % control SOLNI (Solanum nigra; [5]): 65% | % control SOLNI (Solanum nigra; [6]): 68% | % control SOLNI (Solanum nigra; [7]): 71% | % control SOLNI (Solanum nigra; [8]): 78% | % control SOLNI (Solanum nigra; [9]): 78% | % control SOLNI (Solanum nigra; [10]): 73% | % control SOLNI (Solanum nigra; [11]): 80% | % control SOLNI (Solanum nigra; [12]): 82% | % control SOLNI (Solanum nigra; [13]): 83% | % control SOLNI (Solanum nigra; [14]): 83% | % control SOLNI (Solanum nigra; [15]): 84% | % control SOLNI (Solanum nigra; [16]): 85% | % control POROC (Portulaca oleracea; [1]): 7% | % control POROC (Portulaca oleracea; [2]): 2% | % control POROC (Portulaca oleracea; [3]): 13% | % control POROC (Portulaca oleracea; [4]): 35% | % control POROC (Portulaca oleracea; [5]): 8% | % control POROC (Portulaca oleracea; [6]): 18% | % control POROC (Portulaca oleracea; [7]): 43% | % control POROC (Portulaca oleracea; [8]): 46% | % control POROC (Portulaca oleracea; [9]): 28% | % control POROC (Portulaca oleracea; [10]): 36% | % control POROC (Portulaca oleracea; [11]): 45% | % control POROC (Portulaca oleracea; [12]): 50% | % control POROC (Portulaca oleracea; [13]): 42% | % control POROC (Portulaca oleracea; [14]): 47% | % control POROC (Portulaca oleracea; [15]): 63% | % control POROC (Portulaca oleracea; [16]): 81% | % control SIDSP (Sida Spinosa; [1]): 30% | % control SIDSP (Sida Spinosa; [2]): 38% | % control SIDSP (Sida Spinosa; [3]): 38% | % control SIDSP (Sida Spinosa; [4]): 38% | % control SIDSP (Sida Spinosa; [5]): 37% | % control SIDSP (Sida Spinosa; [6]): 38% | % control SIDSP (Sida Spinosa; [7]): 52% | % control SIDSP (Sida Spinosa; [8]): 62% | % control SIDSP (Sida Spinosa; [9]): 50% | % control SIDSP (Sida Spinosa; [10]): 63% | % control SIDSP (Sida Spinosa; [11]): 77% | % control SIDSP (Sida Spinosa; [12]): 76% | % control SIDSP (Sida Spinosa; [13]): 76% | % control SIDSP (Sida Spinosa; [14]): 78% | % control SIDSP (Sida Spinosa; [15]): 78% | % control SIDSP (Sida Spinosa; [16]): 77% | % control ECHCG (Echinochloa crus-galli; [17]): 12% | % control ECHCG (Echinochloa crus-galli; [18]): 15% | % control ECHCG (Echinochloa crus-galli; [19]): 51% | % control ECHCG (Echinochloa crus-galli; [20]): 53% | % control ECHCG (Echinochloa crus-galli; [1]): 32% | % control ECHCG (Echinochloa crus-galli; [2]): 35% | % control ECHCG (Echinochloa crus-galli; [3]): 68% | % control ECHCG (Echinochloa crus-galli; [4]): 91% | % control ECHCG (Echinochloa crus-galli; [5]): 78% | % control ECHCG (Echinochloa crus-galli; [6]): 83% | % control ECHCG (Echinochloa crus-galli; [7]): 90% | % control ECHCG (Echinochloa crus-galli; [8]): 98% | % control ECHCG (Echinochloa crus-galli; [9]): 90% | % control ECHCG (Echinochloa crus-galli; [10]): 89% | % control ECHCG (Echinochloa crus-galli; [11]): 95% | % control ECHCG (Echinochloa crus-galli; [12]): 98% | % control SORHA (Sorghum halepense; [17]): 8% | % control SORHA (Sorghum halepense; [18]): 8% | % control SORHA (Sorghum halepense; [19]): 32% | % control SORHA (Sorghum halepense; [20]): 84% | % control SORHA (Sorghum halepense; [1]): 23% | % control SORHA (Sorghum halepense; [2]): 20% | % control SORHA (Sorghum halepense; [3]): 68% | % control SORHA (Sorghum halepense; [4]): 89% | % control SORHA (Sorghum halepense; [5]): 78% | % control SORHA (Sorghum halepense; [6]): 70% | % control SORHA (Sorghum halepense; [7]): 90% | % control SORHA (Sorghum halepense; [8]): 95% | % control SORHA (Sorghum halepense; [9]): 87% | % control SORHA (Sorghum halepense; [10]): 89% | % control SORHA (Sorghum halepense; [11]): 96% | % control SORHA (Sorghum halepense; [12]): 95% | % control ABUTH (Abutilon Theophrasti; [1]): 40% | % control ABUTH (Abutilon Theophrasti; [2]): 48% | % control ABUTH (Abutilon Theophrasti; [3]): 25% | % control ABUTH (Abutilon Theophrasti; [4]): 43% | % control ABUTH (Abutilon Theophrasti; [5]): 42% | % control ABUTH (Abutilon Theophrasti; [6]): 33% | % control ABUTH (Abutilon Theophrasti; [7]): 50% | % control ABUTH (Abutilon Theophrasti; [8]): 52% | % control ABUTH (Abutilon Theophrasti; [9]): 42% | % control ABUTH (Abutilon Theophrasti; [10]): 65% | % control ABUTH (Abutilon Theophrasti; [11]): 58% | % control ABUTH (Abutilon Theophrasti; [12]): 68% | % control ABUTH (Abutilon Theophrasti; [13]): 78% | % control ABUTH (Abutilon Theophrasti; [14]): 80% | % control ABUTH (Abutilon Theophrasti; [15]): 81% | % control ABUTH (Abutilon Theophrasti; [16]): 85%
